Measurements taken from ChEMBL document CHEMBL5154681, “Small Amphiphilic Peptides: Activity Against a Broad Range of Drug-Resistant Bacteria and Structural Insight into Membranolytic Properties” (J Med Chem, 2022).
In brackets after ≈: the same amount, converted by molar mass. Square brackets hold non-standard residues; d marks the D form. Peptide text beside a SMILES is read from it. Bip = N[C@@H](Cc1ccc(-c2ccccc2)cc1)C(=O)O; Dip = N[C@H](C(=O)O)C(c1ccccc1)c1ccccc1; 2Nal = N[C@@H](Cc1ccc2ccccc2c1)C(=O)O

Legend:
[1] = system: Staphylococcus aureus; assay: Antibacterial activity against methicillin resistant Staphylococcus aureus ATCC BAA-1556 incubated for 24 hrs by microtiter plate method; type: functional; details: Staphylococcus aureus, ATCC BAA-1556, 24 h, read-out: MIC
[2] = system: Escherichia coli; assay: Antibacterial activity against Escherichia coli ATCC 25922 incubated for 24 hrs by microtiter plate method; type: functional; details: Escherichia coli, ATCC 25922, 24 h, read-out: MIC
[3] = system: Pseudomonas aeruginosa; assay: Antibacterial activity against Pseudomonas aeruginosa ATCC 27883 incubated for 24 hrs by microtiter plate method; type: functional; details: Pseudomonas aeruginosa, ATCC 27883, 24 h, read-out: MIC
[4] = Hemolytic activity in human RBC assessed as hemolysis incubated for 2 hrs by spectrophotometer analysis; type: toxicity, cell-based, Erythrocyte; details: human red blood cells (erythrocytes)
[5] = system: Staphylococcus aureus; assay: Antibacterial activity against Staphylococcus aureus ATCC 29213 incubated for 24 hrs by microtiter plate method; type: functional; details: Staphylococcus aureus, ATCC 29213, read-out: MIC

Structure (SMILES) | MIC [1] [µg/mL] | MIC [2] [µg/mL] | MIC [3] [µg/mL] | HC50 at 2 h [4] [µg/mL] | MIC [5] [µg/mL]
N=C(N)NCCC[C@@H]1NC(=O)[C@H](CCCNC(=N)N)NC(=O)[C@H](CCCNC(=N)N)NC(=O)[C@H](C(c2ccccc2)c2ccccc2)NC(=O)[C@H](C(c2ccccc2)c2ccccc2)NC(=O)[C@H](CCCNC(=N)N)NC1=O (cyclo([Dip][Dip]RRRR)) | 6.2 (≈ 5.79 µM) | 50 (≈ 46.7 µM) | 25 (≈ 23.3 µM) | 110 | 6.2 (≈ 5.79 µM)
N=C(N)NCCC[C@@H]1NC(=O)[C@H](CCCNC(=N)N)NC(=O)[C@H](CCCNC(=N)N)NC(=O)[C@H](C(c2ccccc2)c2ccccc2)NC(=O)[C@H](C(c2ccccc2)c2ccccc2)NC(=O)[C@H](C(c2ccccc2)c2ccccc2)NC(=O)[C@H](C(c2ccccc2)c2ccccc2)NC(=O)[C@H](CCCNC(=N)N)NC1=O (cyclo([Dip][Dip][Dip][Dip]RRRR)) | 6.2 (≈ 4.08 µM) | 25 (≈ 16.5 µM) | 25 (≈ 16.5 µM) | 40 | 3.1 (≈ 2.04 µM)
NCCCC[C@H](NC(=O)[C@H](CCCCN)NC(=O)[C@H](CCCCN)NC(=O)[C@@H](N)CCCCN)C(=O)N[C@@H](CCCCN)C(=O)N[C@H](C(=O)N[C@H](C(=O)N[C@H](C(=O)O)C(c1ccccc1)c1ccccc1)C(c1ccccc1)c1ccccc1)C(c1ccccc1)c1ccccc1 (H-KKKKK[Dip][Dip][Dip]-OH) | 50 (≈ 37.6 µM) | > 100 | > 100 | 280 | 50 (≈ 37.6 µM)
N=C(N)NCCC[C@H](NC(=O)[C@H](CCCNC(=N)N)NC(=O)[C@H](CCCNC(=N)N)NC(=O)[C@H](CCCNC(=N)N)NC(=O)[C@@H](N)CCCNC(=N)N)C(=O)N[C@@H](Cc1ccc2ccccc2c1)C(=O)N[C@@H](Cc1ccc2ccccc2c1)C(=O)N[C@@H](Cc1ccc2ccccc2c1)C(=O)O (H-RRRRR[2Nal][2Nal][2Nal]-OH) | 6.2 (≈ 4.46 µM) | 25 (≈ 18 µM) | 25 (≈ 18 µM) | 190 | 6.2 (≈ 4.46 µM)
N=C(N)NCCC[C@@H]1NC(=O)[C@H](CCCNC(=N)N)NC(=O)[C@H](CCCNC(=N)N)NC(=O)[C@H](Cc2ccc(-c3ccccc3)cc2)NC(=O)[C@H](Cc2ccc(-c3ccccc3)cc2)NC(=O)[C@H](Cc2ccc(-c3ccccc3)cc2)NC(=O)[C@H](Cc2ccc(-c3ccccc3)cc2)NC(=O)[C@H](CCCNC(=N)N)NC1=O (cyclo([Bip][Bip][Bip][Bip]RRRR)) | > 100 | > 100 | > 100 |  | 50 (≈ 32.9 µM)
N=C(N)NCCC[C@@H]1NC(=O)[C@H](CCCNC(=N)N)NC(=O)[C@H](CCCNC(=N)N)NC(=O)[C@H](Cc2ccc3ccccc3c2)NC(=O)[C@H](Cc2ccc3ccccc3c2)NC(=O)[C@H](CCCNC(=N)N)NC1=O (cyclo([2Nal][2Nal]RRRR)) | 6.2 (≈ 6.08 µM) | 50 (≈ 49.1 µM) | 50 (≈ 49.1 µM) | 125 | 6.2 (≈ 6.08 µM)
N=C(N)NCCC[C@@H]1NC(=O)[C@H](CCCNC(=N)N)NC(=O)[C@H](Cc2ccc3ccccc3c2)NC(=O)[C@H](Cc2ccc3ccccc3c2)NC(=O)[C@H](CCCNC(=N)N)NC(=O)[C@H](CCCNC(=N)N)NC(=O)[C@H](Cc2ccc3ccccc3c2)NC1=O (stereo in doubt; 18C) | 6.2 (≈ 5.1 µM) | 25 (≈ 20.6 µM) | > 100 | 105 | 6.2 (≈ 5.1 µM)
N=C(N)NCCC[C@H](NC(=O)[C@H](CCCNC(=N)N)NC(=O)[C@@H](N)CCCNC(=N)N)C(=O)N[C@@H](Cc1ccc2ccccc2c1)C(=O)N[C@@H](Cc1ccc2ccccc2c1)C(=O)N[C@@H](Cc1ccc2ccccc2c1)C(=O)O (H-RRR[2Nal][2Nal][2Nal]-OH) | 6.2 (≈ 5.75 µM) | 12.5 (≈ 11.6 µM) | 25 (≈ 23.2 µM) | 105 | 6.2 (≈ 5.75 µM)
N=C(N)NCCC[C@H](NC(=O)[C@H](Cc1ccc2ccccc2c1)NC(=O)[C@H](Cc1ccc2ccccc2c1)NC(=O)[C@H](CCCNC(=N)N)NC(=O)[C@H](CCCNC(=N)N)NC(=O)[C@H](Cc1ccc2ccccc2c1)NC(=O)[C@@H](N)CCCNC(=N)N)C(=O)O (H-R[2Nal]RR[2Nal][2Nal]R-OH) | 25 (≈ 20.3 µM) | 25 (≈ 20.3 µM) | 50 (≈ 40.5 µM) | 205 | 12.5 (≈ 10.1 µM)
N=C(N)NCCC[C@H](NC(=O)[C@H](CCCNC(=N)N)NC(=O)[C@H](Cc1ccc2ccccc2c1)NC(=O)[C@H](Cc1ccc2ccccc2c1)NC(=O)[C@H](CCCNC(=N)N)NC(=O)[C@@H](N)CCCNC(=N)N)C(=O)N[C@@H](Cc1ccc2ccccc2c1)C(=O)O (H-RR[2Nal][2Nal]RR[2Nal]-OH) | 25 (≈ 20.3 µM) | 25 (≈ 20.3 µM) | 25 (≈ 20.3 µM) | 195 | 12.5 (≈ 10.1 µM)
N=C(N)NCCC[C@@H]1NC(=O)[C@H](CCCNC(=N)N)NC(=O)[C@H](CCCNC(=N)N)NC(=O)[C@H](Cc2ccc3ccccc3c2)NC(=O)[C@H](Cc2ccc3ccccc3c2)NC(=O)[C@H](Cc2ccc3ccccc3c2)NC(=O)[C@H](Cc2ccc3ccccc3c2)NC(=O)[C@H](CCCNC(=N)N)NC1=O (cyclo([2Nal][2Nal][2Nal][2Nal]RRRR)) | 6.2 (≈ 4.39 µM) | 25 (≈ 17.7 µM) | 50 (≈ 35.4 µM) | 30 | 3.1 (≈ 2.19 µM)
